Data published in patent publication US20250152605A1, “METHOD AND DRUG FOR TREATING NEURONAL CEROID LIPOFUSCINOSIS” (priority 2021, published 2025).

Columns and labels:
[1] = system: CLN3^Δex7/8 neural stem cells; experiment: Lysotracker staining of CLN3^Δex7/8 neural stem cells; type: cell-based, human
Method: The cells were stained with Lysotracker, a fluorescent dye that is enriched in acidic lysosomes and emits red fluorescence. The fluorescence intensity of the stained cells was then analyzed using flow cytometry.

mice's neurons = experiment: qRT-PCR of autophagy-related and lysosomal genes in mouse neurons; type: cell-based; conditions: 6 hours
Method: The cells in the cell-culture dish were collected, extracted using AxyPrep Total RNA Mini Prep Kit or Qiagen AxyPrep Total RNA Mini Prep Kit, and the extracted RNA concentration is measured using Nanodrop; the extracted mRNA was reverse transcribed into cDNA by Transgen's EasyScript® One-Step gDNA Removal and cDNA Synthesis SuperMix and the primers used for reverse transcription were Oligo dT primers; the completion of reverse transcription followed by qRT-PCR reaction through PerfectStart™ Green qPCR SuperMix to detect the expression of the target gene; the qRT-PCR reaction was performed on the Bio-Rad CFX96 Real-Time PCR system; see Table 2 and Table 3 for the 20 μL qRT-PCR reaction system and reaction procedures; data analysis was performed in Prism 7 software using the 2^−ΔΔCt process with GAPDH as internal reference for relative quantification of the expression of the target gene.
After treating primary (a) neural stem cells and (b) neurons of Cln3 KO) mice for 6 hours, the mRNA was extracted from the cells, reverse-transcribed into cDNA, and transcription levels of autophagy- and lysosome-related genes were detected using qRT-PCR (n=3).
It was speculated from this that the known target FXR of Compound G was expressed at low or no levels in neural lineage cells. […]

KEAP1 protein = target: T1, KEAP1 protein (Homo sapiens, UniProt Q14145); experiment: Quantitative thiol reactivity analysis; type: binding; conditions: CLN3^Δex7/8 human neural stem cells, 30 μM, 2 hours, mass spectrometry
T1 construct: mass spectrometry was used to analyze the thiol reactivity of the cysteine residues on KEAP1 in the lysate; endogenous in cells; host or cells: CLN3 Δex7/8 human neural stem cells differentiated from H9 human embryonic stem cells
Method: To determine the protein covalently bound to Compound G, a Compound G-binding proteomic analysis with the following steps was performed: neural stem cells were cultured in 10 cm cell culture dishes to a cell density of 90%. 1-2 mg of protein could be obtained after the neural stem cells in a 10 cm cell culture dish are lysed; the supernatant was aspirated, fresh medium containing 30 μM Compound G or medium containing an equal volume of solvent DMSO was added, followed by incubation in a cell culture incubator at 37° C. for 2 hours; the cell medium was aspirated followed by washing once with 10 mL of dPBS, and the aspiration should be as clean as possible.
The cell culture dish was placed on ice and added with RIPA cell lysis buffer with protease inhibitors and phosphatase inhibitors (for the formulation, please refer to the flow cytometry analysis and sorting section); all cells were scraped off on ice using a cell scraper and collected into 1.5 mL EP tubes; the sample was placed on ice and ultrasonically broken with an ultrasonic power of 20% and with ultrasound 5 times for 3 seconds each time; ENE probe at a final concentration of 100 μM was added to each sample, followed by incubation for 1 hour in the dark while rotating. ENE could react with sulfhydryl groups in protein cysteine residues to produce stable thioether bonds. […]

[2] = system: APP-gene mutant human neurons; experiment: Human neuron model of Alzheimer's dementia (Aβ immunofluorescence, Aβ42 ELISA); type: cell-based
Text: FIG. 44: Compound G reduced Aβ protein storage and secretion levels of toxic Aβ42 in APP mutant neurons. (a) Immunofluorescence staining, for detecting Compound G-treated APP mutant neurons for abnormal accumulation of Aβ protein and (b) statistics of Aβ plaque area, and the scale bar was 50 μm. (c) ELISA tests, for measuring the effect of Compound G on the secretion level of toxic Aβ42 of APP mutant neurons.
The present disclosure detected the therapeutic effect of the treatment of Compound G on Alzheimer's dementia. We directed the differentiation of human embryonic stem cells with mutations in APP gene into human neurons in vitro and constructed an in vitro human neuron model of Alzheimer's dementia.

T1 sequence (Q14145 whole entry): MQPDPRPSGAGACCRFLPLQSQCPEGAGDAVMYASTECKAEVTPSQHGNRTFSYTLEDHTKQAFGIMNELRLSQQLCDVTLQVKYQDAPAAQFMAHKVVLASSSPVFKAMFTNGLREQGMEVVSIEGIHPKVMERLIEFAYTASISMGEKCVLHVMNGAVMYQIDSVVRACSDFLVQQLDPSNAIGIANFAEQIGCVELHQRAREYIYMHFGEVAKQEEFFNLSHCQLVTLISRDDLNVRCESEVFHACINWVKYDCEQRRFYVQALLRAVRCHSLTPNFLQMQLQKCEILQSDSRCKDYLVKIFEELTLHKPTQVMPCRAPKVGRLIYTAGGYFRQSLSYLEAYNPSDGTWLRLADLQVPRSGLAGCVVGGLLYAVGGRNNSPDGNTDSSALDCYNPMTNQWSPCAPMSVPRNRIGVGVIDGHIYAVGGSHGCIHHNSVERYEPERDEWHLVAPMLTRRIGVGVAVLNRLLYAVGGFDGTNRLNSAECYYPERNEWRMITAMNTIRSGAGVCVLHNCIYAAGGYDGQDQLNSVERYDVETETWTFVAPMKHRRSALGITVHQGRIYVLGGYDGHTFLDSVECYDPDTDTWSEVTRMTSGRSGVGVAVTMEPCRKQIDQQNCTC

In the case of `C/C=C1\C(=O)C[C@H]2[C@@H]3CCC4=CC(=O)CC[C@]4(C)[C@H]3CC[C@]12C` [Compound G, (Z)-guggulsterone], the “Lysotracker staining in neural stem cells” value [1] is reported as “significantly improve the Lysotracker staining”, the “transcription level of the autophagy-related genes or the lysosomal genes” value (mice's neurons) is reported as “did not significantly increase” and the “thiol reactivity of the cysteine residues on KEAP1” value (KEAP1 protein) is reported as “reduce the thiol reactivity of cysteine residue 288”. For the same compound, the “deposition of Aβ plaques” value [2] was “significant reduction” and the “level of toxic Aβ42 secreted by the cells into the culture medium” value ([2]; ELISA) was “significant reduction”.
